What was measured:
[1] = Self-fluorescence of dyes and plaque substances by fluorescent microscopy; type: physicochemical; design: key to Self-fluorescence colour: B: blue.; G: green.; O: orange.; W: white.; Y: yellow; conditions: for Self-fluorescence present or not: exciting 360/emitting 420 nm or exciting 470/emitting 515 nm
[2] = biological target: T1, ApoB100 (apolipoprotein B100) (Homo sapiens, UniProt P04114); assay: Dye-evoked fluorescence of ApoB100, fluorescent microscopy; design: key: B: blue.; G: green.; O: orange.; W: white.; Y: yellow
T1 construct: purchased ICN Biomedicals, Ohio

[3] = biological target: T1, ApoB100 (apolipoprotein B100); assay: as above; design: key: RO: reddish orange; conditions: ApoB (Table 4)
[4] = biological target: T1, ApoB100 (apolipoprotein B100); assay: as above; design: key: B: blue.; Br: brown.; G: green.; Go: gold.; O: orange.; P: purple.; R: red.; SB: sky blue.; V: violet.; W: white.; Y: yellow; conditions: exciting 360 nm, emitting 420 nm
[5] = exciting filter 360 nm, emitting filter 420 nm
[6] = exciting filter 470 nm, emitting filter 515 nm
[7] = exciting 360 nm, emitting 420 nm
[8] = exciting 470 nm, emitting 515 nm

T1 sequence (P04114 28-4563, species assumed): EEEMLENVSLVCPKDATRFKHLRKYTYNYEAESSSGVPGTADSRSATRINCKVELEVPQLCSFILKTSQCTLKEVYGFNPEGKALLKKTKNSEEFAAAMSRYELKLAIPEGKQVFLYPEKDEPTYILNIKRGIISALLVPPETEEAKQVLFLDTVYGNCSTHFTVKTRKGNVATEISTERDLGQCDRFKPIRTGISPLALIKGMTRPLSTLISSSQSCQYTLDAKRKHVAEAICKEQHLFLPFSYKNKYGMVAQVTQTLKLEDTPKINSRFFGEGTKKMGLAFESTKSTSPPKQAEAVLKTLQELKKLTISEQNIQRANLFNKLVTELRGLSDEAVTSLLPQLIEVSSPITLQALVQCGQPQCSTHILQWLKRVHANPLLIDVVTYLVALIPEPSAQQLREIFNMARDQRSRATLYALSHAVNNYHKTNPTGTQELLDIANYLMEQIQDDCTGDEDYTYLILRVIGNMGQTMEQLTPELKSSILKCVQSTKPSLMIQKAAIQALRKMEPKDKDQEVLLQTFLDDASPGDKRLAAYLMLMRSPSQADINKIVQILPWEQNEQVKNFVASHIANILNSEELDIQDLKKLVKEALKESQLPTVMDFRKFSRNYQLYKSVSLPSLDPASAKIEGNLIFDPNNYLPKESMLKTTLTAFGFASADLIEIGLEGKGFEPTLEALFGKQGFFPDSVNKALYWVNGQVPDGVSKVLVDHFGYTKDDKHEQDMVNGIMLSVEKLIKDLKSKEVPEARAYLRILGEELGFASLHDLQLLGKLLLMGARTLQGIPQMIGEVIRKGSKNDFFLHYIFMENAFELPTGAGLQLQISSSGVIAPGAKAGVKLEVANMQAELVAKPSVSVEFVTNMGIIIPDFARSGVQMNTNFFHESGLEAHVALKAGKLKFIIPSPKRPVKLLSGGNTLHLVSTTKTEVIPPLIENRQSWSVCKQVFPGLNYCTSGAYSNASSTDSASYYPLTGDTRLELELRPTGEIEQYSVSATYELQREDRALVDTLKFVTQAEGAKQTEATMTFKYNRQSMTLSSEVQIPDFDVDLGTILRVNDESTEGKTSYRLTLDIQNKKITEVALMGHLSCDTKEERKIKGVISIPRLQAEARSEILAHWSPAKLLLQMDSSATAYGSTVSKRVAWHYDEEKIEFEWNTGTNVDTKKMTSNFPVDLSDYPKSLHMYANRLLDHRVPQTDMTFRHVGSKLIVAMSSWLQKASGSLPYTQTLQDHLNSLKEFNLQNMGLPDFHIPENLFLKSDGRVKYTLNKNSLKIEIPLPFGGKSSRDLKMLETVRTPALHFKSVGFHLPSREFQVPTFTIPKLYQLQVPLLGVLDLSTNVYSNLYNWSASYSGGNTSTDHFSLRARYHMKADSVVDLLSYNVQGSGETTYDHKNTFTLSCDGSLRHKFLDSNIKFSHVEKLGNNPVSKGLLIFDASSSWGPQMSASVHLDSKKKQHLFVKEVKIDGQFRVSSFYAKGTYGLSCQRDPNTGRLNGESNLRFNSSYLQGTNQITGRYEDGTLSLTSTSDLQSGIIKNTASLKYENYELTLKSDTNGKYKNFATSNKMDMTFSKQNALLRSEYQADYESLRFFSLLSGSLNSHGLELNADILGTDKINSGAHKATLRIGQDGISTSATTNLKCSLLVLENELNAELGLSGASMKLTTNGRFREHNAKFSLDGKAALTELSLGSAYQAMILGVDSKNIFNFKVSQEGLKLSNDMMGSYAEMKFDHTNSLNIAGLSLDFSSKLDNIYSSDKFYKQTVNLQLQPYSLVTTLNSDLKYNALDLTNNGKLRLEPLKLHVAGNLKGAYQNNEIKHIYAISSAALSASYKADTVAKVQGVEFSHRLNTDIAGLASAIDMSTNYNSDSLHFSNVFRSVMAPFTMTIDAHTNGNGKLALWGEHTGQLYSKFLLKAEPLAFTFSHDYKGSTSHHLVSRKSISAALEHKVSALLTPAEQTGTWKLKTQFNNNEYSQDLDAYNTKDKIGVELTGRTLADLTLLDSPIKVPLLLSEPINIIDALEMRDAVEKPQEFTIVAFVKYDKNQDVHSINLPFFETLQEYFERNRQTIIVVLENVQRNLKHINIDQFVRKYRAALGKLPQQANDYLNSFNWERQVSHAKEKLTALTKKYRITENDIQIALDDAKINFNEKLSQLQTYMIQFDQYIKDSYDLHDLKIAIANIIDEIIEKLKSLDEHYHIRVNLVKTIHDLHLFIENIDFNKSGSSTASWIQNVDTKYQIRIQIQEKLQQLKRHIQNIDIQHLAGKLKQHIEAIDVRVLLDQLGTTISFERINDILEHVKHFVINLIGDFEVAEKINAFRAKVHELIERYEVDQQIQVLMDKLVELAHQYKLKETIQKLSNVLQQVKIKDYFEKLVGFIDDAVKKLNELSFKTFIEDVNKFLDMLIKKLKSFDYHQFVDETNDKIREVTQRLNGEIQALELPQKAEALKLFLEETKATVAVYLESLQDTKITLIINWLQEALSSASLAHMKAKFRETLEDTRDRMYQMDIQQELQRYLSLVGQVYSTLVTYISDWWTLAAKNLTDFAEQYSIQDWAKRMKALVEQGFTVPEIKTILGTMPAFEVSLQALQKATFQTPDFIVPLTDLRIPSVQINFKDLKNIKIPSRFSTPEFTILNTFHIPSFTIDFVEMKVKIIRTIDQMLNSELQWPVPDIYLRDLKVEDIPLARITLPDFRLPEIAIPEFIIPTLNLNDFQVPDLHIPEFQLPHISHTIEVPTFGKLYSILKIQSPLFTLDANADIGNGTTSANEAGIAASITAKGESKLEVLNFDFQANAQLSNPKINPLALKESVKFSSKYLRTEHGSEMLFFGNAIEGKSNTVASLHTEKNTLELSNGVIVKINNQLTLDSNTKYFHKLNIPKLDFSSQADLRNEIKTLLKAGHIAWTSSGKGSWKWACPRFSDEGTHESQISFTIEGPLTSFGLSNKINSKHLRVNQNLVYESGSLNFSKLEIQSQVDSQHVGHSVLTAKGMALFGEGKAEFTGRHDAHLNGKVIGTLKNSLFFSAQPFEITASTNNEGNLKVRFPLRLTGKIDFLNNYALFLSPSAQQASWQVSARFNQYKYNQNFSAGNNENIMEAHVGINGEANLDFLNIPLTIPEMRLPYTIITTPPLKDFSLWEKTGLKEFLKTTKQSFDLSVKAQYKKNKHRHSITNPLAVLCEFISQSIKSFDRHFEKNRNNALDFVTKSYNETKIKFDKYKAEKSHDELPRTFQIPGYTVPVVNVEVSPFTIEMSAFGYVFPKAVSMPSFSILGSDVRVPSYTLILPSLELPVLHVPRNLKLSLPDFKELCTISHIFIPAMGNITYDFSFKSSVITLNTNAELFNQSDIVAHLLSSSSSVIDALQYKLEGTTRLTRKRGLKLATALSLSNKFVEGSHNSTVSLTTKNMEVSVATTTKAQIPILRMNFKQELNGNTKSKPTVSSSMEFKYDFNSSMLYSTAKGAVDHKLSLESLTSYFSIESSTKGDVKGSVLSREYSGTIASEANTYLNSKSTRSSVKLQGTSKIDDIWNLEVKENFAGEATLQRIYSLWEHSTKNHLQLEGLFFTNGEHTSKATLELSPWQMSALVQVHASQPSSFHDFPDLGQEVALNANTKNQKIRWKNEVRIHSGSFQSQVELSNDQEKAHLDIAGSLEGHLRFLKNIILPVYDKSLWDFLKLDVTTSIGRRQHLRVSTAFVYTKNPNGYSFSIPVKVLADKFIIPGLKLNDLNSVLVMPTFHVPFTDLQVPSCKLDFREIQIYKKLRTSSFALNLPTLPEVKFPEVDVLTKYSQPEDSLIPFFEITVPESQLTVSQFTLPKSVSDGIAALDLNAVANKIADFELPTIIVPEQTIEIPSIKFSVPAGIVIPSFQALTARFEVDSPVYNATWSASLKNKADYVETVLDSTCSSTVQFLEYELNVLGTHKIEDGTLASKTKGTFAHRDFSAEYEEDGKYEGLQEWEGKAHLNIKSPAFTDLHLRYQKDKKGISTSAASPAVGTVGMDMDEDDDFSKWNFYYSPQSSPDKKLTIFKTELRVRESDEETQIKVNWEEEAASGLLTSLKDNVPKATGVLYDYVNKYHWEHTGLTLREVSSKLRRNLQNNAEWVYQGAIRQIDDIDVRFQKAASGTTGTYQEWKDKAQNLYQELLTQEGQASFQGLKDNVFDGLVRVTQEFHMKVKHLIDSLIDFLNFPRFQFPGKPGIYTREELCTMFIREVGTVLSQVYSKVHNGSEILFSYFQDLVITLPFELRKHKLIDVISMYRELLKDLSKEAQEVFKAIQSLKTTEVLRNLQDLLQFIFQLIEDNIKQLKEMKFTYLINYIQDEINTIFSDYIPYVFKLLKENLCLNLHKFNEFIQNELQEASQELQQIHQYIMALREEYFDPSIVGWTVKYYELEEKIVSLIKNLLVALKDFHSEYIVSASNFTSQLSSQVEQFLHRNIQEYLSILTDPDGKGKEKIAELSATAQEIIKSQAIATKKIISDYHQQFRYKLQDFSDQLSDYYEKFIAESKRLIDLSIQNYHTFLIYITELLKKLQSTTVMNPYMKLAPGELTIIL

Compound	Self-fluorescence present or not [1]	Self-fluorescence colour [1, 5]	Self-fluorescence colour [1, 6]	Dye-evoked fluorescence colour [2, 8]	other results
CCCCC/C=C\C/C=C\CCCCCCCC(=O)O[C@H]1CC[C@@]2(C)C(=CC[C@H]3[C@@H]4CC[C@H]([C@H](C)CCCC(C)C)[C@@]4(C)CC[C@@H]32)C1 [Cholesteryl linolate]	had self-fluorescence	W	Y	–	–
Cc1cc(-c2ccc(/N=N/c3ccc4c(S(=O)(=O)O)cc(S(=O)(=O)O)c(N)c4c3O)c(C)c2)ccc1/N=N/c1ccc2c(S(=O)(=O)O)cc(S(=O)(=O)O)c(N)c2c1O [Evans blue]	no self-fluorescence	–	–	O	Dye-evoked fluorescence colour [2, 7]: O
CC[n+]1c(-c2ccccc2)c2cc(N)ccc2c2ccc(N)cc21 [Homidium chloride]	has self-fluorescence	Y	O	–	Dye-evoked fluorescence colour [3, 7]: RO; Dye-evoked fluorescence colour [3, 8]: RO
CC1=NN(c2cc(Cl)c(S(=O)(=O)[O-])cc2Cl)C(=O)C1N=Nc1ccc(S(=O)(=O)[O-])cc1.[Na+].[Na+] (stereo not drawn) [Lissamine fast yellow]	no self-fluorescence	–	–	–	–
O=S(=O)([O-])c1cccc(N=Nc2ccc(Nc3ccccc3)cc2)c1.[Na+] [Metanyl yellow]	no self-fluorescence	–	–	–	–

More lines, main results first:

Self-fluorescence present or not [1]	Self-fluorescence colour [1, 5]	Self-fluorescence colour [1, 6]	Dye-evoked fluorescence colour [2, 8]	Compound	other results
no self-fluorescence	–	–	G	CC[N+](CC)=c1ccc2nc3c(cc(N)c4ccccc43)oc-2c1 [Nile blue]	Dye-evoked fluorescence colour [2, 7]: O
no self-fluorescence	–	–	O	Cc1cc(-c2ccc(/N=N/c3c(S(=O)(=O)[O-])cc4cc(S(=O)(=O)[O-])cc(N)c4c3O)c(C)c2)ccc1/N=N/c1c(S(=O)(=O)[O-])cc2cc(S(=O)(=O)[O-])cc(N)c2c1O.[Na+].[Na+].[Na+].[Na+] [Tripan blue]	Dye-evoked fluorescence colour [4]: P
had self-fluorescence	O	O	–	CC1=C(/C=C/C(C)=C/C=C/C(C)=C/C=C/C=C(C)/C=C/C=C(C)/C=C/C2=C(C)CCCC2(C)C)C(C)(C)CCC1 [beta-Carotene]	–
had self-fluorescence	W	Y	–	CC(C)CCC[C@@H](C)[C@H]1CC[C@H]2[C@@H]3CC=C4C[C@@H](O)CC[C@]4(C)[C@H]3CC[C@]12C [free Cholesterol]	–
had self-fluorescence	W	–	–	phosphatidylcholine [PC]	–
